How the values were obtained:
[1] = test system: Cdc7 (pS53MCM2 levels in HCT116 cells); assay: Cdc7 Cell Pharmacodynamics Assay Method 1: pS53MCM2 levels in HCT116 cells, 6 hours; assay type: cell-based; conditions: for EC50: Homo sapiens, HCT-116, 6 h, read-out: Biomarker Method 1 (pEC50) (converted)
From the text: This protocol describes a method to investigate the inhibition of Cdc7 activity of compounds by measuring pS53MCM2 levels in cells after treatment.
• HCT116 cells (wild type P53 positive) • McCoys 5A media (PAA Laboratories Ltd, E15-022) • 10% FCS (Sera Laboratories International Ltd, EU000F Batch:108005) • 100× L-Glutamine (Invitrogen, 25030-024) • D-PBS without CaCl2 and MgCl2 (Invitrogen, ref 14190-094) • Trypsin/EDTA (Invitrogen 25300-054) • 2% BSA in PBS • Cell Extraction Buffer (Invitrogen FNN0011) • Protease inhibitor cocktail (Sigma P-2714) • PMSF 0.3M stock in DMSO (Sigma P7626) • Antibody-rabbit pMCM2 Ser53 (Bethyl #A300-756A) • Antibody-goat MCM2 (Bethyl #A300-122A) • Antibody-goat Anti Rabbit IgG HRP (Perbio Science UK Ltd 31462) • 1×PBS • FACE Wash buffer (0.02% Triton X100 in 1×PBS) • SuperSignal ELISA Pico Chemiluminescent Substrate (Perbio Science UK Ltd 37070) Method • 72 hours prior to the start of the experiment plate 1×10^6 HCT 116 cells in a 150 cm^2 flask in complete McCoys 5A media (+10% FCS+1× L-glutamine). • Plate 20,000 HCT116 cells per well in standard TC treated 96 well plate in 100 μL complete McCoys 5A media. • Allow cells to settle overnight in incubator set at 37° C. and 5% CO2. • Remove intermediate plate from fridge and place at 37° C. overnight to allow to equilibrate. • Cell treatment: cell assay plate 100 μL; daughter to cell transfer volume 3.33 μL; daughter volume 45 μL; mother plate to daughter volume 5 μL. • Once all cells are treated remove the cells to the incubator and incubate for 6 hours. • Dilute the capture antibody (total MCM2#A300-122A) 1 in 250 in the required volume of PBS (5 mL per assay plate) and add 50 μL to each well of a Hybond plate excluding wells 12E to 12H. In these wells add 50 μL PBS. Seal the plate and incubate at room temperature for a minimum of 2 hours. • Defrost aliquot of Invitrogen Cell Extraction Buffer (FNN0011) on ice and supplement with appropriate volume of both Sigma protease inhibitor cocktail (P-2714) and PMSF (final conc 1 mM from a 1 M stock in DMSO). • After the 6 hour cell treatment time tap out the media from the assay plates and place them in the −70° C. freezer for at least 5 minutes. • Remove plates from freezer and add 20 μL of ice cold complete lysis buffer on ice. Incubate cells for 30 minutes at 4° C. • Add 80 μL per well 2% BSA. • Transfer 80 μL from the lysis plate to the same wells in the capture/ELISA plate. Cover with plate seal and incubate plates overnight at 4° C. • Wash plates with PBS, remove any residual remaining liquid and add 50 μL per well of pMCM2 Ser53 antibody (#A300-756A) diluted 1 in 100 in 2% BSA. Cover plate and incubate at room temperature for 2 hours with gentle shaking. • Wash plates with PBS, remove any residual remaining liquid and Incubate with 50 μL goat anti rabbit antibody (1 in 800 dilution in 2% BSA) for 1 hour at room temperature. • Wash plates with PBS, remove any residual remaining liquid and add 50 μL mixed SuperSignal Pico substrate. • Incubate each plate for 5 minutes at room temperature shielding the plates from direct light (with a cover plate). Read plates with the luminescent detection. Method 2A and 2B

Cdc7/ASK = Cdc7/ASK (Homo sapiens, UniProt O00311); assay: Cdc7 Biochemical Assay Method 1: 384 well ELISA, whole protein substrate MCM2, antibody against Phospho MCM2 (S53); design: purchased; conditions: 2 μM ATP, read-out: Biochemical Method 1 (pIC50) (converted)
How it was run: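 MCM2 protein substrate was coated on nickel-chelate plates, then Cdc7/ASK was added with 2 μM ATP in 50 mM Tris-HCl pH 8.5, 10 mM MgCl2, 1 mM DTT, 4% DMSO, 90 min at room temperature. Phospho-MCM2 (S53) was detected by ELISA with an AP secondary and PNPP absorbance. IC50 was derived from % inhibition versus no-compound and no-enzyme controls.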

Chain of Cdc7/ASK (O00311 whole entry): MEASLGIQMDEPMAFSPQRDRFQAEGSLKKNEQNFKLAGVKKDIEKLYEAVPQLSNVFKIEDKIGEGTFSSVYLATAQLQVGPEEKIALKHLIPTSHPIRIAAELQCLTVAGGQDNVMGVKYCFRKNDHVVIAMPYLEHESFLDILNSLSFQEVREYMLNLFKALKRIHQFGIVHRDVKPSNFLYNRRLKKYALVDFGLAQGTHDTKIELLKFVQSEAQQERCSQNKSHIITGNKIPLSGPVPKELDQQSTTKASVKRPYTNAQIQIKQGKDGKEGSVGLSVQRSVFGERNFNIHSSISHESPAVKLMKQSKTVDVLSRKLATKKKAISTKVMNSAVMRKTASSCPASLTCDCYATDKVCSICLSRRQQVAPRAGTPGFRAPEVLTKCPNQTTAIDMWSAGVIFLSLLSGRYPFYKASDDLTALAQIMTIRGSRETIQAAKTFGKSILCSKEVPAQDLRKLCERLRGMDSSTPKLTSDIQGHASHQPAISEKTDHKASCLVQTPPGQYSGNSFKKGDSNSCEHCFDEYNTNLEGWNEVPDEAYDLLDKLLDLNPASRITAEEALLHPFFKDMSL
Chain of Cdc7/ASK (Q9UBU7 whole entry partner): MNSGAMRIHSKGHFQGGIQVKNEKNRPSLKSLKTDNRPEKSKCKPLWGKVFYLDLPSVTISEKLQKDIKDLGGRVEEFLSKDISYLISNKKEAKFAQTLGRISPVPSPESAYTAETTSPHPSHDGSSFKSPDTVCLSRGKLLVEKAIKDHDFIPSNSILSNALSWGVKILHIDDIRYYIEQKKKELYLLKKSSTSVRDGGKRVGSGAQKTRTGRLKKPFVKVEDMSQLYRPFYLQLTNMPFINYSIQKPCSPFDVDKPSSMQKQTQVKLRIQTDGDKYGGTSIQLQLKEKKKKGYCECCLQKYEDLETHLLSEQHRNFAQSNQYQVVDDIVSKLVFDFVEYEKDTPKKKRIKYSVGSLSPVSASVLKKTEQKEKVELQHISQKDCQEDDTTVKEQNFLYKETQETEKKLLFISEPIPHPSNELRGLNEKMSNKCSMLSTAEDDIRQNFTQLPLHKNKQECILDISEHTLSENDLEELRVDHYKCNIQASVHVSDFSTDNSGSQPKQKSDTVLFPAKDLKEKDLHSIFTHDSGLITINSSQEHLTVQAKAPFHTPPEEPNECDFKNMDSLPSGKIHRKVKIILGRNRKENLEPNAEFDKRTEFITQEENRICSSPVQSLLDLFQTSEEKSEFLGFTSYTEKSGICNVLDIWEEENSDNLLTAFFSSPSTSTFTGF

SMILES	EC50 [1] [nM]	IC50 (Cdc7/ASK) [nM]	Biomarker Method 1 (pEC50) [1]
CC1CN(c2nc(-c3ccncc3)[nH]c(=O)c2Cl)CCN1C (centres unmarked) [Compound 28]	191	11.2	
CCN1CCN(c2nc(-c3ccncc3)[nH]c(=O)c2Cl)CC1 [Compound 31]	398	39.8	
O=C(N1CCN(c2nc(-c3ccncc3)[nH]c(=O)c2Cl)CC1)C(F)(F)F [Compound 76]	182	3.47	
C[C@H]1CN(c2nc(-c3ccncc3)[nH]c(=O)c2Cl)CCN1C(=O)C(F)(F)F [Compound 77, 5-chloro-4-[(3S)-3-methyl-4-(2,2,2-trifluoroacetyl)piperazin-1-yl]-2-(4-pyridyl)-1H-pyrimidin-6-one]	93.3	2.95	
CC(=O)N1CCN(c2nc(-c3ccncc3)[nH]c(=O)c2Cl)C[C@@H]1C [Compound 78]	468	2.29	
CN1CCN(c2nc(-c3ccncc3)[nH]c(=O)c2Cl)CC1 [Compound 81]	195	9.33	
CC(C)CN1CCN(c2nc(-c3ccncc3)[nH]c(=O)c2Cl)CC1 [Compound 82]	977	31.6	
O=c1[nH]c(-c2ccncc2)nc(N2CCN(CC3CCCC3)CC2)c1Cl [Compound 84]	589	23.4	
O=c1[nH]c(-c2ccncc2)nc(N2CCN(CC3CCCCC3)CC2)c1Cl [Compound 85]	891	47.9	
CC(C)CN1CCC(c2nc(-c3ccnc(F)c3)[nH]c(=O)c2Cl)CC1 [Compound 87]	148	3.02	
C[C@H]1CN(c2nc(-c3ccncc3)[nH]c(=O)c2Cl)CCN1C [Compound 88]	107	14.1	
O=c1[nH]c(-c2ccncc2)nc(N2CCOCC2)c1Cl [Compound 89, 5-chloro-4-morpholino-2-(4-pyridyl)-1H-pyrimidin-6-one]	74.1	2.29	
O=c1[nH]c(-c2ccncc2)nc(N2CCOC(c3ccccc3)C2)c1Cl (centres unmarked) [Compound 91]	3160	66.1	
O=c1[nH]c(-c2ccncc2)nc(N2CCOC(CCO)C2)c1Cl (centres unmarked) [Compound 94]	759	6.92	
O=c1[nH]c(-c2ccncc2)nc(N2CCNC(C(F)(F)F)C2)c1Cl (centres unmarked) [Compound 101]	44.7	4.37	
CC1CC(C)CN(c2nc(-c3ccncc3)[nH]c(=O)c2Cl)C1 (centres unmarked) [Compound 103]	1150	29.5	
O=c1[nH]c(-c2ccncc2)nc(N2CCC(O)CC2)c1Cl [Compound 104]	155	3.8	
CC1CCCN(c2nc(-c3ccncc3)[nH]c(=O)c2Cl)C1 (centres unmarked) [Compound 105]	427	14.1	
O=c1[nH]c(-c2ccncc2)nc(N2CCC(F)CC2)c1Cl [Compound 106]	70.8	7.59	
O=c1[nH]c(-c2ccncc2)nc(N2CCCC(C(F)(F)F)C2)c1Cl (centres unmarked) [Compound 107]		7.08	6.44
O=c1[nH]c(-c2ccncc2)nc(N2CCC(CO)CC2)c1Cl [Compound 109]	151	3.63	
O=c1[nH]c(-c2ccncc2)nc(N2CCN(c3cccc(F)c3)CC2)c1Cl [Compound 111]	759	16.2	
O=C(OCc1ccccc1)N1CCN(c2nc(-c3ccncc3)[nH]c(=O)c2Cl)CC1 [Compound 112]	759	6.17	
O=c1[nH]c(-c2ccncc2)nc(N2CCCCCC2)c1Cl [Compound 114]	1550	19.1	
O=c1[nH]c(-c2ccncc2)nc(N2CCN(c3cccnc3)CC2)c1Cl [Compound 116]	603	12.6	
CC1(C)CN(c2nc(-c3ccncc3)[nH]c(=O)c2Cl)CCO1 [Compound 121]	117	5.62	

SMILES	EC50 [1] [nM]	IC50 (Cdc7/ASK) [nM]	Biomarker Method 1 (pEC50) [1]
CC1CCN(c2nc(-c3ccncc3)[nH]c(=O)c2Cl)CC1 [Compound 122]	417	6.61	
O=c1[nH]c(-c2ccncc2)nc(N2CCCC(CO)C2)c1Cl (centres unmarked) [Compound 123]	224	9.33	
O=c1[nH]c(-c2ccncc2)nc(N2CCN(CCO)CC2)c1Cl [Compound 125]	912	40.7	
O=c1[nH]c(-c2ccncc2)nc(N2CCC(F)(F)CC2)c1Cl [Compound 127]	224	45.7	
O=c1[nH]c(-c2ccncc2)nc(N2CCSCC2)c1Cl [Compound 128]	79.4	2.57	
O=c1[nH]c(-c2ccncc2)nc(N2CCN[C@@H](CO)C2)c1Cl [Compound 129]	871	2.09	
O=c1[nH]c(-c2ccncc2)nc(N2CCCC(F)C2)c1Cl (centres unmarked) [Compound 131]	112	8.13	
O=c1[nH]c(-c2ccncc2)nc(N2CCCC(F)(F)C2)c1Cl [Compound 132]	33.9	1.95	
O=c1[nH]c(-c2ccncc2)nc(N2CC3C(C2)C3(F)F)c1Cl (centres unmarked) [Compound 134]	692	19.1	
O=c1[nH]c(-c2ccncc2)nc(N2CCC(C(F)(F)F)C2)c1Cl (centres unmarked) [Compound 135]	661	23.4	
O=c1[nH]c(-c2ccncc2)nc(N2CCCN(CCO)CC2)c1Cl [Compound 136]	2090	20	
C[C@@H]1CN(c2nc(-c3ccncc3)[nH]c(=O)c2Cl)CCN1 [Compound 140]	457	6.03	
O=c1[nH]c(-c2ccncc2)nc(N2CCCN(CC(F)(F)F)CC2)c1Cl [Compound 142]	661	15.5	
CCCN1CCCN(c2nc(-c3ccncc3)[nH]c(=O)c2Cl)CC1 [Compound 143]	407	21.4	
O=C(N1CCCN(c2nc(-c3ccncc3)[nH]c(=O)c2Cl)CC1)C(F)(F)F [Compound 144]	589	9.33	
CS(=O)(=O)N1CCCN(c2nc(-c3ccncc3)[nH]c(=O)c2Cl)CC1 [Compound 145]	269	2.51	
O=c1[nH]c(-c2ccncc2)nc(N2CCN(CC(F)(F)F)CC2)c1Cl [Compound 146]	229	7.24	
C#CCN1CCN(c2nc(-c3ccncc3)[nH]c(=O)c2Cl)CC1 [Compound 150]	427	14.1	
O=c1[nH]c(-c2ccncc2)nc(N2CCC3(CC2)COC3)c1Cl [Compound 151]	501	34.7	
O=c1[nH]c(-c2ccncc2)nc(N2CCN(CC(F)(F)C(F)F)CC2)c1Cl [Compound 152]	871	19.5	
N#CC1CCN(c2nc(-c3ccncc3)[nH]c(=O)c2Cl)CC1 [Compound 153]	126	1.78	
O=c1[nH]c(-c2ccncc2)nc(N2C3CCCC2COC3)c1Cl [Compound 154]	63.1	2.45	
CC(F)(F)C1CN(c2nc(-c3ccncc3)[nH]c(=O)c2Cl)CCN1 (centres unmarked) [Compound 156]	66.1	3.98	
CC(C)(C)[C@H]1CN(c2nc(-c3ccncc3)[nH]c(=O)c2Cl)CCN1 [Compound 157]	79.4	2.95	
O=c1[nH]c(-c2ccncc2)nc(N2CCNC3(CCC3)C2)c1Cl [Compound 158]	1740	19.5	
O=c1[nH]c(-c2ccncc2)nc(N2CCOC(C(F)(F)F)C2)c1Cl (centres unmarked) [Compound 159]	209	6.61	

— patent US10919896B2, “Preparation and uses of pyrimidinone derivatives” (Cancer Research Technology Limited, priority 2016, dated 2021)
